Where a name gives a salt, the structure may show the parent alone.
Tests used:
[1] = Storage stability: total related substances by liquid chromatography before and after storage; format: physicochemical; settings: for total amount of related substances (produced impurities), at the start: before storage; for total amount of related substances (produced impurities), at the start / total amount of related substances (produced impurities), after 3 months: liquid chromatography, related substances measured to ≥0.03%; for total amount of related substances (produced impurities), after 3 months: tightly sealed glass vessel, relative humidity 75° C.
Experimental: The storage stability of the compound (I) crystal form A obtained in example 1 was compared with that of the free-form crystals obtained in comparative example 1.
The respective crystals were introduced into a glass vessel which was then tightly sealed and stored at 40° C., relative humidity […] for 3 months; the amount of related substances before and after storage was measured by liquid chromatography; the results are shown in Table 1. The values are the total amount of related substances, which are produced impurities, as measured to ≥0.03%.

[2] = Retention of water of crystallization on heated drying under reduced pressure; format: physicochemical; settings: 80° C.
Excerpt: Inventive crystal form B of compound (I) is a hydrate crystal form, and can be obtained using a combination of solvents that includes water. Alcohols such as ethanol and 2-propanol are preferred as the solvent used in combination with water. For example, the crystal form can be obtained by dissolving compound (I) in a mixed solvent containing ethanol and water at a ratio of 1:1 (80×volume), concentrating and then drying. The drying can comprise natural drying, drying under reduced pressure, heated drying, or heated drying under reduced pressure.

melting point [°C] | total amount of related substances (produced impurities), at the start [1] [%] | total amount of related substances (produced impurities), after 3 months ([1]; 40° C.) [%] | SMILES | storage stability compared with the free-form crystals ([1]; 40° C., relative humidity 75, 3 months) | loss of water of crystallization [2]
141 | – | – | CCc1nc2c(Cl)ccc(OCC(=O)O)c2c(OC(F)F)c1Cc1ccc(Cl)cc1 (as salt: salt) [Free-form crystals, [8-chloro-3-(4-chlorobenzyl)-4-difluoromethoxy-2-ethylquinolin-5-yloxy]acetic Acid] | – | –
– | 0.53 | 0.59 | CCc1nc2c(Cl)ccc(OCC(=O)O)c2c(OC(F)F)c1Cc1ccc(Cl)cc1.NCCCC[C@H](N)C(=O)O [Compound (I) crystal form A, [8-chloro-3-(4-chlorobenzyl)-4-difluoro-methoxy-2-ethylquinolin-5-yloxy]acetic Acid L-Lysine Salt in Crystal Form A] | better storage stability than the free-form crystals | –
– | 1.37 | 1.95 | CCc1nc2c(Cl)ccc(OCC(=O)O)c2c(OC(F)F)c1Cc1ccc(Cl)cc1 [Free-form crystals, [8-chloro-3-(4-chlorobenzyl)-4-difluoromethoxy-2-ethylquinolin-5-yloxy]acetic Acid, reference compound] | – | –
– | – | – | CCc1nc2c(Cl)ccc(OCC(=O)O)c2c(OC(F)F)c1Cc1ccc(Cl)cc1.NCCCC[C@H](N)C(=O)O [crystal form B of compound (I), [8-chloro-3-(4-chlorobenzyl)-4-difluoro-methoxy-2-ethylquinolin-5-yloxy]acetic Acid L-Lysine Salt in Crystal Form B] | – | no water of crystallization is lost even at 80 °C

Reference: patent US10626089B2, “Quinoline derivative in crystal form” (GB001, Inc., priority 2016, dated 2020)
